Holding throughout (format): biochemical
Assay [1] deals with Human LOXL2 (Homo sapiens (Human), UniProt Q9Y4K0). The assay can be described thus: LOXL2 inhibition, peroxidase-coupled Amplex Red amine oxidase assay. The settings on record: 30 min preincubation at 37° C., putrescine substrate. From the text: (§1) Method to Determine the Ability of Compounds of the Invention to Inhibit LOX and LOXL1-4 from Different Sources
(§2) Lysyl oxidase (LOX) is an extracellular copper dependent enzyme which oxidizes peptidyl lysine and hydroxylysine residues in collagen and lysine residues in elastin to produce peptidyl alpha-aminoadipic-delta-semialdehydes. […] There are five LOX family members; these are LOX, LOXL1, LOXL2, LOXL3 and LOXL4. LOX and LOXL family members can be acquired as recombinant active proteins from commercial sources, or extracted from animal tissues like bovine aorta, tendons, pig skin; or prepared from cell cultures. The inhibitory effects of the compounds of the present invention were tested against the given LOX-LOXL preparation using a high-throughput coupled colorimetric method (Holt A. and Palcic M., A peroxidase-coupled continuous absorbance plate-reader assay for flavin monoamine oxidases, copper-containing amine oxidases and related enzymes. Nat. Protoc. 2006; 1: 2498-2505). The assay was developed using either 384 or 96 well format. Briefly, in a standard 384 well plate assay 25 μL of a dilution of any of the isoenzymes and orthologues in 1.2 M urea, 50 mM sodium borate buffer (pH 8.2) were added into each well in the presence of 1 μM mofegiline and 0.5 mM pargyline (to inhibit SSAO and MAO-B and MAO-A, respectively). Test compounds were dissolved in DMSO and tested in a Concentration Response Curve (CRC) with 11 data points, typically in the micromolar or nanomolar range after incubation with the enzyme for 30 min at 37° C. Twenty five L of a reaction mixture containing twice the KM concentration of putrescine (Sigma Aldrich, e.g. 20 mM for LOX, or 10 mM for LOXL2 and LOXL3), 120 μM Amplex Red (Sigma Aldrich) and 1.5 U/mL horseradish peroxidase (Sigma Aldrich) prepared in 1.2 M urea, 50 mM sodium borate buffer (pH 8.2) were then added to the corresponding wells. The above volumes were doubled in the case of 96 wells plate. The fluorescence (RFU) was read every 2.5 min for 30 min at a range of temperatures from 37° to 45° C., excitation 565 nm and emission 590 (Optima; BMG labtech). The slope of the kinetics for each well was calculated using MARS data analysis software (BMG labtech) and this value was used to deduce the IC50 value (Dotmatics).

Assay [2] deals with Recombinant human MAO-B (Homo sapiens (Human), UniProt P27338). The assay is described as follows: Inhibition of human recombinant MAO-B. Conditions: benzylamine 100 μM. The protocol: Method to Determine the Ability of Compounds of Formula I to Inhibit Human Recombinant MAO-B
Recombinant human MAO-B, sequence (P27338 whole entry): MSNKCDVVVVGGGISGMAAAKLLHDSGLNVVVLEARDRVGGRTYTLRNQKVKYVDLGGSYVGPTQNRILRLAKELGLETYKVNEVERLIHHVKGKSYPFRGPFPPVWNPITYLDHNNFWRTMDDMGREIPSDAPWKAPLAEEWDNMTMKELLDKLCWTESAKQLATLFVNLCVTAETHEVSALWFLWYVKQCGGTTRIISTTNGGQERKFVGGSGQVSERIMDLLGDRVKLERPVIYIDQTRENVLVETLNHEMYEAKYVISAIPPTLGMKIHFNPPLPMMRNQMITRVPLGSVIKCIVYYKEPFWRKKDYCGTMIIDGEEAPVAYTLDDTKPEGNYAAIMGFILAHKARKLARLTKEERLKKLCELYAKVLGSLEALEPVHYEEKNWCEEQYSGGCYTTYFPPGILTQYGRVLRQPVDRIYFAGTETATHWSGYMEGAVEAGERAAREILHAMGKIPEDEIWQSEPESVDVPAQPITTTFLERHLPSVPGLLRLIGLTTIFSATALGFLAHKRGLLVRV
The specificity of the compounds of this invention was tested by determining their ability to inhibit MAO-B activities in vitro. Recombinant human MAO-B (0.06 mg/mL; Sigma Aldrich) was used as source of MAO-B enzyme activities. The assay was performed in a similar way as for human SSAO/VAP-1 (Example 66) except, the substrate benzylamine was used at 100 μM.

Assay [3] has as its target human recombinant SSAO/VAP-1 (Homo sapiens (Human), UniProt Q16853). The assay can be described thus: Inhibition of human recombinant SSAO/VAP-1 amine oxidase activity. Conditions: 30 min preincubation at 37° C., 600 μM benzylamine. The method, then:
Method to Determine the Ability of Compounds of Formula I to Inhibit Human Recombinant SSAO/VAP-1
Human recombinant SSAO/VAP-1 amine oxidase activity was determined using the coupled colorimetric method as described for monoamine oxidase, copper-containing amine oxidases and related enzymes (Holt A. and Palcic M., A peroxidase-coupled continuous absorbance plate-reader assay for flavin monoamine oxidases, copper-containing amine oxidases and related enzymes. Nat Protoc 2006; 1: 2498-2505). Briefly, a cloned cDNA template corresponding to residues 34-763 of human SSAO/VAP-1, and incorporating a mouse Ig kappa (κ) signal sequence, N-terminal flag epitope tag and tobacco etch virus (TEV) cleavage site, was assembled in a mammalian expression vector (pLO-CMV) by Geneart AG. This vector containing human SSAO/VAP-1 residues was transfected into CHO-K1 glycosylation mutant cell line, Lec 8. A clone stably expressing human SSAO/VAP-1 was isolated and cultured in large scale. Active human SSAO/VAP-1 was purified and recovered using immunoaffinity chromatography. This was used as the source for SSAO/VAP-1 activity. A high-throughput colorimetric assay was developed using either 96 or 384 well format. Briefly, in a standard 96 well plate assay 50 μL of purified human SSAO/VAP-1 (0.25 μg/mL) in 0.1 M sodium phosphate buffer (pH 7.4) was added into each well. Test compounds were dissolved in DMSO and tested in a Concentration Response Curve (CRC) with 4-11 data points, typically in the micromolar or nanomolar range after incubation with human SSAO/VAP-1 for 30 min at 37° C. After 30 min incubation, 50 μL of the reaction mixture containing 600 μM benzylamine (Sigma Aldrich), 120 μM Amplex Red (Sigma Aldrich) and 1.5 U/mL horseradish peroxidase (Sigma Aldrich) prepared in 0.1 M sodium phosphate buffer (pH 7.4) were added to the corresponding well. The fluorescence unit (RFU) was read every 2.5 min for 30 min at 37° C. excitation 565 nm and emission 590 (Optima; BMG labtech). The slope of the kinetics for each well was calculated using MARS data analysis software (BMG labtech) and this value was used to deduce the IC50 value (Dotmatics).

Assay [4] has as its target Bovine LOX (Bos taurus (Bovine), UniProt P33072). The assay can be described thus: LOX inhibition, peroxidase-coupled Amplex Red amine oxidase assay. The settings on record: 30 min preincubation at 37° C., putrescine substrate.
Text: as §1
as §2, with “Test compounds were dissolved in DMSO and tested in a Concentration Response Curve (CRC) with 11 data points, typically in the micromolar or nanomolar range after incubation with the enzyme for 30 min at 37° C.” left out

Structures can show the parent of a compound that is named as a salt.

Bovine LOX, sequence (P33072 170-418): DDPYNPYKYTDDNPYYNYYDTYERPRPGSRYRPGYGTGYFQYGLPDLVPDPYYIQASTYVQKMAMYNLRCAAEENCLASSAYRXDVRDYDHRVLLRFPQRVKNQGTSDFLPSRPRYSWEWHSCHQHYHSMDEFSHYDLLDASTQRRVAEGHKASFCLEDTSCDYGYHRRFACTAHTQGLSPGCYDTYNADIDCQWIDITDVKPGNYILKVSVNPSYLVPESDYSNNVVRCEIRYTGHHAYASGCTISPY
human recombinant SSAO/VAP-1, sequence (Q16853 34-763): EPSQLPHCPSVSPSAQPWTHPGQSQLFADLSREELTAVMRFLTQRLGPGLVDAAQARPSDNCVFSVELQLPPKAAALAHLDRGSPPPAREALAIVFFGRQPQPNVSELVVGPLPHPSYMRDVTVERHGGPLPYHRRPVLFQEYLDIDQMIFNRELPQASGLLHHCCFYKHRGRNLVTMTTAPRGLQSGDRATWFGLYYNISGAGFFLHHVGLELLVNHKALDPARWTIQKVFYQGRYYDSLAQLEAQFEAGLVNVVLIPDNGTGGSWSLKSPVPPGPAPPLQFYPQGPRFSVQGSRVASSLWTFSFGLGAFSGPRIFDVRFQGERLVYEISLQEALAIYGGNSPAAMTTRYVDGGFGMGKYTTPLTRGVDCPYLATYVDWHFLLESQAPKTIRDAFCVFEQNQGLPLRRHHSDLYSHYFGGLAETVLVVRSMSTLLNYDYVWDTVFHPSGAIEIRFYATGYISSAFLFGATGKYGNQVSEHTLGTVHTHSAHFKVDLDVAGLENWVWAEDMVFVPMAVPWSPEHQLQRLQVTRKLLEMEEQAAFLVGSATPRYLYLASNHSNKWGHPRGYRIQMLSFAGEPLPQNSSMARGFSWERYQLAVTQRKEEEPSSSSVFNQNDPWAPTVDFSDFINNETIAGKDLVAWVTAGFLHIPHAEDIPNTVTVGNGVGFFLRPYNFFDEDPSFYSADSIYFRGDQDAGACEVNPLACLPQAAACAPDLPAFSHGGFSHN
Human LOXL2, sequence (Q9Y4K0 26-774): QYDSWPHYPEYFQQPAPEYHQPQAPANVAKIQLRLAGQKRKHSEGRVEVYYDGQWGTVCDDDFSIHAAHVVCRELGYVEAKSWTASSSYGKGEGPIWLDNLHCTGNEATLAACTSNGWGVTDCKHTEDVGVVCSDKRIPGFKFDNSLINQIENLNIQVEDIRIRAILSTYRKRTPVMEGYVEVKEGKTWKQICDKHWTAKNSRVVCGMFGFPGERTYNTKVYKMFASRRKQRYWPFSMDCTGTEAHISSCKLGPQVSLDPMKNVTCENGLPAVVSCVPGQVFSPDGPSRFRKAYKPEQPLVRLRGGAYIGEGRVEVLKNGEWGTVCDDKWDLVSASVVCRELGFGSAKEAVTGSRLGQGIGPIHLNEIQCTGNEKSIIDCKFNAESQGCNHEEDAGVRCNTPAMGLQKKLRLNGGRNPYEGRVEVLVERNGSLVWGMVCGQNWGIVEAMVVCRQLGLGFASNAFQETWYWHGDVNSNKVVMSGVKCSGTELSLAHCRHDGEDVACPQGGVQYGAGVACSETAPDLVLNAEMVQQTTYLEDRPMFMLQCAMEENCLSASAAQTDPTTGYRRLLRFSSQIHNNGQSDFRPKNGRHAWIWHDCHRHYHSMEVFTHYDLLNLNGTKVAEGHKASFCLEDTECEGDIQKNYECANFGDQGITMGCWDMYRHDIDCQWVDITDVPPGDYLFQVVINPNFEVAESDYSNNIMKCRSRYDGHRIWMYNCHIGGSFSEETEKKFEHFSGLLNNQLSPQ

With `Cc1c(-c2cccc(S(=O)(=O)N(C)C)c2)c2cc(C(=O)N(C)C(C)C)ccc2n1C/C(F)=C/CN` [Compound 36, (Z)-1-(4-amino-2-fluorobut-2-en-1-yl)-3-(3-(N,N-dimethylsulfamoyl)phenyl)-N-isopropyl-N,2-dimethyl-1H-indole-5-carboxamide], the IC50 in assay [1] was below 300 nM; in assay [2], above 3000 nM; in assay [3], above 3000 nM; in assay [4], above 300 nM.

On to `Cc1c(-c2ccc3c(c2)OCO3)c2cc(S(C)(=O)=O)ccc2n1C/C(F)=C/CN` [Compound 92, (Z)-4-(3-(benzo[d][1,3]dioxol-5-yl)-2-methyl-5-(methylsulfonyl)-1H-indol-1-yl)-3-fluorobut-2-en-1-amine], for which the IC50 is below 300 nM in assay [1], above 3000 nM in assay [2], above 3000 nM in assay [3] and above 300 nM in assay [4].

`COC(=O)c1ccc2c(c1)c(-c1cccc(S(=O)(=O)N(C)C)c1)c(C)n2C/C(F)=C/CN` [Compound 5, Hydrochloride]: the IC50 was below 300 nM in assay [1], above 3000 nM in assay [2], above 3000 nM in assay [3] and above 300 nM in assay [4].

Turning to `Cc1c(-c2cccc(S(=O)(=O)N(C)C)c2)c2cc(S(=O)(=O)C(C)C)ccc2n1C/C(F)=C/CN` [Compound 106, (Z)-3-(1-(4-amino-2-fluorobut-2-en-1-yl)-5-(isopropylsulfonyl)-2-methyl-1H-indol-3-yl)-N,N-dimethyl-benzenesulfonamide Hydrochloride], the IC50 in assay [1] was below 300 nM; in assay [2] it was above 3000 nM; in assay [3] it was above 3000 nM; in assay [4] it was above 300 nM.

In the case of `Cc1c(-c2cncc(S(=O)(=O)N(C)C)c2)c2cc(OC(F)(F)F)ccc2n1C/C(F)=C/CN` [Compound 85, (Z)-5-(1-(4-amino-2-fluorobut-2-en-1-yl)-2-methyl-5-(trifluoromethoxy)-1H-indol-3-yl)-N,N-dimethyl-pyridine-3-sulfonamide Dihydrochloride], the IC50 in assay [1] was below 300 nM; in assay [2], above 3000 nM; in assay [3], above 3000 nM; in assay [4], above 300 nM.

Consider `CN(C)S(=O)(=O)c1cncc(-c2cn(C/C(F)=C/CN)c3ccc(Cl)cc23)c1` [Compound 66, (Z)-5-(1-(4-amino-2-fluorobut-2-en-1-yl)-5-chloro-1H-indol-3-yl)-N,N-dimethylpyridine-3-sulfonamide], for which the IC50 in assay [1] was below 300 nM; in assay [2], above 3000 nM; in assay [3] it was above 3000 nM; in assay [4], above 300 nM.

In the case of `Cc1c(-c2cccc(S(=O)(=O)N(C)C)c2)c2cc(O)ccc2n1C/C(F)=C/CN` [Compound 37, (Z)-3-(1-(4-amino-2-fluorobut-2-en-1-yl)-5-hydroxy-2-methyl-1H-indol-3-yl)-N,N-dimethylbenzenesulfonamide], the IC50 in assay [1] is below 300 nM; in assay [2] it was above 3000 nM; in assay [3], above 3000 nM; in assay [4], above 300 nM.

As for `Cc1c(-c2cccc(S(=O)(=O)N(C)C)c2)c2nc(C(=O)O)ccc2n1C/C(F)=C/CN` [Compound 43, (Z)-1-(4-amino-2-fluorobut-2-en-1-yl)-3-(3-(N,N-dimethylsulfamoyl)phenyl)-2-methyl-1H-pyrrolo[3,2-b]pyridine-5-carboxylic acid], the IC50 in assay [1] was below 300 nM; in assay [2] it was above 3000 nM; in assay [3], above 3000 nM; in assay [4], above 300 nM.

Regarding `Cc1cc(-c2c(C)n(C/C(F)=C/CN)c3ccc([N+](=O)[O-])cc23)cc(C)n1` [Compound 101, (Z)-4-(3-(2,6-dimethylpyridin-4-yl)-2-methyl-5-nitro-1H-indol-1-yl)-3-fluorobut-2-en-1-amine], the IC50 in assay [1] is below 300 nM; in assay [2] it was above 3000 nM; in assay [3], above 3000 nM; in assay [4] it was above 300 nM.

For the compound `Cc1c(-c2cccc(S(=O)(=O)C(F)(F)F)c2)c2cc(C(=O)N(C)C)ccc2n1C/C(F)=C/CN` [Compound 57, (Z)-1-(4-amino-2-fluorobut-2-en-1-yl)-N,N,2-trimethyl-3-(3-((trifluoromethyl)sulfonyl)phenyl)-1H-indole-5-carboxamide], the IC50 in assay [1] is below 300 nM; in assay [2], above 3000 nM; in assay [3], above 3000 nM; in assay [4], above 300 nM.

Turning to `Cc1c(-c2cncc(S(=O)(=O)N(C)C)c2)c2ccccc2n1C/C(F)=C/CN` [Compound 63, (Z)-5-(1-(4-amino-2-fluorobut-2-en-1-yl)-2-methyl-1H-indol-3-yl)-N,N-dimethylpyridine-3-sulfonamide], the half-inhibitory concentration (IC50) in assay [1] is below 300 nM; in assay [2], above 3000 nM; in assay [3], above 3000 nM; in assay [4], above 300 nM.

In the case of `Cc1cc(-c2c(C)n(C/C(F)=C/CN)c3ccc(S(C)(=O)=O)cc23)ccn1` [Compound 94, (Z)-3-fluoro-4-(2-methyl-3-(2-methylpyridin-4-yl)-5-(methylsulfonyl)-1H-indol-1-yl)but-2-en-l-amine, Dihydrochloride], the half-inhibitory concentration (IC50) in assay [1] was below 300 nM; in assay [2], above 3000 nM; in assay [3], above 3000 nM; in assay [4] it was above 300 nM.
